Measurements reported in patent US11865099B2, “Product based on iron bis-glycinate chelate and alginic acid and/or water-soluble salts thereof, formulations thereof, and pharmaceutical uses thereof” (LABORATORI BALDACCI S.P.A., priority 2015, dated 2024).

Assay: Iron dissolution test, rotating basket apparatus, sample in dialysis membrane, 0.01 N HCl
Format: physicochemical
Details: for percentage of dissolved iron: after 120 minutes; for dissolution rate: sample in 1.0 ml 0.01 N HCl (method A) in dialysis membrane, linear trend
[1] = 1.0 ml 0.01 N HCl, dialysis membrane

Description: The dissolution test was performed with rotating basket apparatus according to Eur. Pharmacopoeia 9th Edition choosing hydrochloric acid to simulate the gastric fluid.
A first series of assays were performed placing the product into a dialysis membrane with adequate volumes of hydrochloric acid (1.0 or 2.0 ml). In this case, the dissolution medium was 0.01 N (pH=2) hydrochloric acid, as the dialysis membrane is not compatible with pH values lower than 2.
Experimental method: the dialysis membrane (Spectrum Labs Spectra/Por 3; MWCO; 3500 kDa) was hydrated for one night (16 hours) in deionized water before the test. […] The bags were closed and placed into the basket of the dissolution apparatus.
Then, the basket was immersed in 100 ml of 0.01 N HCl and the dissolution test was carried out at a temperature of 37° C. with a rotation speed of 75 rpm/min, withdrawing, at appropriate times, samples of dissolution phase that were immediately replaced with fresh solvent in order to maintain constant sink condition.
Experimental method: after hydration of the dialysis membrane for one night in deionized water, three exactly weighted samples of Feralgina® having different weights (range 20-30 mg) were dissolved with 1.0 ml (method A) or with 2.0 ml (method B) of hydrochloric acid (0.01 N) and the resulting solutions were placed into the hydrated dialysis membrane. The bags were perfectly closed and placed into the basket of the dissolution apparatus. […] The basket was immersed in 100 ml of 0.01 N HCl at a temperature of 37° C., with a rotation speed of 75 rpm/min, collecting samples of dissolution medium at appropriate times immediately replaced with fresh solvent in order to keep the dissolution constant (sink condition).
The dissolution tests of TecnoFERPlus were performed with two different experimental methods that involved, in one case, the use of the dialysis membrane and experimental conditions similarly to those followed for iron sulfate and iron bisglycinate with different volumes of hydrochloric acid 0.01 N, and in the second one, the use of TecnoFERPlus (capsule) without the dialysis membrane.

Compound | amount of iron dissolved in the medium, of the total content (after 15 minutes, 1.0 ml 0.01 N HCl, dialysis membrane) | percentage of dissolved iron [1] | dissolution rate [min⁻¹]
NCC(=O)[O][Fe][O]C(=O)CN [Iron bis-glycinate chelate] | about 20% | about 60% | 0.378
O=S(=O)([O-])[O-].[Fe+2] [iron sulphate] |  | about 61% | 0.439
